Broadly, the IC50 is the midpoint of a concentration-inhibition curve.

The record followed here is patent US10450314B2, “Pteridine derivatives as modulators of ROR gamma” (Boehringer Ingelheim International GmbH, priority 2015, dated 2019).

SMILES strings stand for the structures.

For one data set, the target named is T1, RORγ (Homo sapiens, UniProt P51449).
T1 construct: expressed in transfected cells; host or cells: HEK 293 cells, transiently cotransfected with pGL4.3 luc2P/GAL4UAS/Hygro reporter
T1 sequence (P51449 269-508 limits assumed): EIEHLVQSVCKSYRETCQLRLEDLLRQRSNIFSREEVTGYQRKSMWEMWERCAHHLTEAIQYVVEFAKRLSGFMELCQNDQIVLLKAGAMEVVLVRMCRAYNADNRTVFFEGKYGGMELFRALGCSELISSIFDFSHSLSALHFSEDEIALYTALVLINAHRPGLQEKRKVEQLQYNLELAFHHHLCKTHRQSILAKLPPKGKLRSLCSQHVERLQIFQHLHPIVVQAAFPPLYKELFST
The data set can be described thus: RORγ Reporter Gene Assay (RGA), luciferase transactivation in transiently transfected HEK 293 cells. Conditions: HEK 293 cells cotransfected with pGL4.3 luc2P/GAL4UAS and pBIND Gal4DBD hRORC LBD; 20-24 h incubation. It counts as cell-based. The method, then:
Reporter Gene Assay (RGA)
A nuclear receptor transactivation assay is performed to quantitate the ability of test compounds to inhibit RORγ transactivation of a luciferase reporter. A similar assay is described in: Khan et al., Bioorganic & Medicinal Chemistry Letters 23 (2013), 532-536. The system uses transiently transfected HEK 293 cells cotransfected with two plasmids (pGL4.3, luc2P/GAL4UAS/Hygro, and pBIND, Gal4DBD hRORC LBD1-3). The positive control is co-transiently transfected with both plasmids, and the negative control contains the pGL4.3 promoter sequence. Assays are assembled in 384 well plates where transiently transfected cells and test compound at varying concentrations are incubated for 20-24 h. The next day, assays plates are taken out and equilibrated at RT for 20-30 minutes. Bright-Glo™ Luciferase Assay System is used to detect Luciferase production. After addition of Bright GLO detection reagent, the plates are incubated at RT for 20 minutes. The plates are read on an Envision plate reader to measure luminescence signal. The RLU signal is converted to POC relative to control and blank wells.
Compound Dilution Buffer:
Bright Glo Luciferase Assay System: Promega #E2620
Thaw lysis buffer provided in kit, add 100 mL lysis buffer to substrate powder.
For orientation: Reporter assays use an easily measured gene product as a stand-in for the process of interest.

Data set [1] in a line: Human liver microsome (HLM) metabolic stability assay. In kind it is in vitro ADME. Conditions: human liver microsomes, 1 uM compound, 37° C., 60 min; % hepatic blood flow. On the procedure: Assessment of Metabolic Stability
The 5 time point, high-throughput human liver microsome (HLM) metabolic stability assay is designed to determine in vitro compound metabolism. Compounds are incubated with HLMs at a concentration of 1 uM, at 37° C., for a total of 60 min. The percent of compound remaining at 5, 15, 30, and 60 min is used to calculate the t1/2 (min), CLint (mL/min/kg), CLh (mL/min/kg), and % Qh. The assay is based on a 96-well format and can accommodate up to 92 compounds per plate (n=1).
Using the 96-well multi-channel head, the Biomek FX, equipped with a Peltier heating block/shaker, is programmed to accomplish the following steps: • 1. Pipette 175 uL of 1.15 mg/mL microsomes into each of the 96 conical inserts (Analytical Sales and Products, catalog number 96PL05) that fit into the plate of the Peltier heating block/shaker (the incubation plate) • 2. Add 5 uL of compounds from the assay plate to the microsomes and shake the mixture at 600 rpm at 42.1° C. for 10 min (a setting of 42.1° C. on the Peltier is required for the samples to incubate at 37° C.) • 3. After 10 min, prompt the user to add the NADPH plate to the deck and add 20 uL from the NADPH plate to the incubation plate to start the reaction • 4. Add 215 uL of 100%, cold acetonitrile containing an internal standard(s) to a 0 minute, 5 minute, 15 minute, 30 minute, and 60 minute “quench” plate • 5. At 0 min, 5 min, 15 min, 30 min, and 60 min into the incubation, aspirate 12 uL from the incubation mixture and add it to the quench solution to stop the reaction • 6. Add 185 uL HPLC grade water to each well of the 0, 5, 15, 30 and 60 minute quench plates to dilute compounds to the appropriate concentration for the mass spectrometer
After all time points are collected, the quench plates are sealed with 96-well pierceable plate mats or heat sealing foil and centrifuged at 3000 rpm for 15 min to pellet the microsomes.
The plates are analyzed using LC/MS/MS with electron spray ionization (ESI) and the previously determined MRM transitions. The LC method includes the following parameters:
Using an Excel template in Activitybase, the peak areas corresponding to 5, 15, 30 and 60 min are compared to the peak area at 0 min to calculate the percent of remaining compound using the following equation:
Percent compound remaining=(AUC at Time t min/AUC at Time 0 min)×100 where t=0, 5, 15, 30 or 60 min.
Time (min) is plotted against the natural logarithm (Ln) of the percent compound remaining to determine the slope. The slope is used to calculate t1/2 (min) using the equation, t1/2=0.693/slope.
Clint, Intrinsic Clearance
For orientation: Liver microsomes are a subcellular fraction often used to study metabolism.

The compound `CC[C@H](C)n1c(=O)c(NCc2ccc(S(=O)(=O)CC)nc2)nc2c(C)nc(-c3c(OC)ncnc3C3CC3)nc21` [Example 63] registered an IC50 against RORγ of 0.1 µM. Moreover, the “HLM (% Qh)” value in data set [1] was <24 % Qh.
On the same counts, the results for `CC[C@@H](C)n1c(=O)c(NCc2ccc(S(C)(=O)=O)cn2)nc2c(CO)nc(-c3c(C)ncnc3C3CC3)nc21` [Example 52] are 0.335 µM and <24 % Qh.
On the same counts, the results for `CC[C@@H](C)n1c(=O)c(NCC2CCN(S(C)(=O)=O)CC2)nc2c(C)nc(-c3c(C)ncnc3C3CC3)nc21` [Example 59] are 0.098 µM and 78 % Qh.
On the same counts, the results for `CCS(=N)(=O)c1ccc(CNc2nc3c(C)nc(-c4c(OC)ncnc4C4CC4)nc3n([C@@H](C)C(F)(F)F)c2=O)nc1` (single isomer, unassigned) [Example 101b] are 0.315 µM and <24 % Qh.
The compound `Cc1ncnc(C2CC2)c1-c1nc(C)c2nc(NCc3ccc(S(C)(=O)=O)cn3)c(=O)n([C@@H](C#N)C(C)C)c2n1` [Example 31] had an IC50 on RORγ of 0.85 µM. Besides, the “HLM (% Qh)” value in data set [1] is 55 % Qh.
As for `CCS(=O)(=O)c1ccc(CNc2nc3c(C)nc(-c4c(OC)ncnc4C4CC4)nc3n([C@@H](C)C3CC3)c2=O)cn1` [Example 66], it took 0.064 µM to reach half-maximal inhibition on RORγ (IC50). Further, in data set [1], the “HLM (% Qh)” value came to 25 % Qh.
On the same counts, the results for `CCS(=N)(=O)c1ccc(CNc2nc3c(C)nc(-c4c(OC)ncnc4C4CC4)nc3n([C@@H](C)C(F)(F)F)c2=O)nc1` (single isomer, unassigned) [Example 101a] are 0.365 µM and <24 % Qh.
The corresponding values for `CC[C@H](C)n1c(=O)c(NCc2ccc(S(C)(=O)=O)nc2)nc2c(C)nc(-c3c(C)ncnc3C3CC3)nc21` [Example 12] are 0.14 µM and <24 % Qh.
On the same counts, the results for `CC[C@@H](C)n1c(=O)c(NCc2ncc(S(C)(=O)=O)cn2)nc2c(C)nc(-c3c(OC)ncnc3C3CC3)nc21` [Example 56] are 1.1 µM and <24 % Qh.
On to `Cc1ncnc(C2CC2)c1-c1nc(C)c2nc(NCc3cnc(S(C)(=O)=O)cn3)c(=O)n([C@@H](C)C(F)(F)F)c2n1` [Example 37], for which the IC50 at RORγ came to 0.455 µM. Also, the “HLM (% Qh)” value in data set [1] is recorded as <24 % Qh.
The corresponding values for `CCS(=N)(=O)c1ccc(CNc2nc3c(C)nc(-c4c(C)ncnc4C4CC4)nc3n([C@@H](C)C(F)(F)F)c2=O)cc1` (single isomer, unassigned) [Example 34a] are 0.21 µM and 25 % Qh.
The corresponding values for `Cc1ncnc(C2CC2)c1-c1nc(C)c2nc(NCc3ccc(S(C)(=N)=O)cc3)c(=O)n([C@@H](C)C(F)(F)F)c2n1` (single isomer, unassigned) [Example 91b] are 0.255 µM and <24 % Qh.
On the same counts, the results for `CC[C@H](C)n1c(=O)c(NCc2ccc(S(C)(=O)=O)cn2)nc2c(C)nc(-c3c(OC)ncnc3C3CC3)nc21` [Example 13] are 0.099 µM and <24 % Qh.
For the compound `COc1ncnc(C2CC2)c1-c1nc(C)c2nc(NCc3ccc(S(C)(=N)=O)cn3)c(=O)n([C@@H](C)C(F)(F)F)c2n1` (single isomer, unassigned) [Example 105a], the IC50 against RORγ worked out at 0.89 µM. For the same compound, in data set [1], the “HLM (% Qh)” value is reported as <24 % Qh.
At RORγ, `Cc1ncnc(C2CC2)c1-c1nc(C)c2nc(NCc3ccc(S(N)(=O)=O)cn3)c(=O)n([C@@H](C)C(F)(F)F)c2n1` [Example 96] came in with an IC50 of 0.28 µM. Further, the “HLM (% Qh)” value in data set [1] is reported as <24 % Qh.
The corresponding values for `CC[C@@H](C)n1c(=O)c(NCc2ccc(S(=O)(=O)CC)cn2)nc2c(COC(C)=O)nc(-c3c(C)ncnc3C3CC3)nc21` [Example 46] are 1.05 µM and 66 % Qh.
On RORγ, `CCS(=O)(=O)c1ccc(CNc2nc3c(C)nc(-c4c(OC)ncnc4C4CC4)nc3n(CC(C)C)c2=O)nc1` [Example 80] displayed a concentration for half-maximal inhibition (IC50) of 0.255 µM. Further, the “HLM (% Qh)” value in data set [1] is reported as <24 % Qh.
For the compound `CC[C@@H](C)n1c(=O)c(NCc2ccc(S(C)(=O)=O)cn2)nc2c(COC(C)=O)nc(-c3c(C)ncnc3C3CC3)nc21` [Example 47], 1.05 µM corresponded to half-maximal inhibition against RORγ (IC50). The “HLM (% Qh)” value in data set [1] was found to be 56 % Qh.
The corresponding values for `CC[C@H](C)n1c(=O)c(NCc2ccc(S(N)(=O)=O)cn2)nc2c(C)nc(-c3c(C)ncnc3C3CC3)nc21` [Example 85] are 0.27 µM and <24 % Qh.
The corresponding values for `CCS(=O)(=O)c1ccc(CNc2nc3c(C)nc(-c4c(OC)ncnc4C4CC4)nc3n(CC(C)C)c2=O)cn1` [Example 78] are 0.275 µM and <24 % Qh.
The corresponding values for `COc1ncnc(C2CC2)c1-c1nc(C)c2nc(NCc3ccc(S(N)(=O)=O)nc3)c(=O)n([C@@H](C)C(F)(F)F)c2n1` [Example 97] are 0.32 µM and 46 % Qh.
On RORγ, `CCS(=O)(=O)c1cnc(CNc2nc3c(C)nc(-c4c(C)ncnc4C4CC4)nc3n([C@@H](C)C(F)F)c2=O)nc1` [Example 94] gave an IC50 of 0.205 µM. Further, the “HLM (% Qh)” value in data set [1] is recorded as <24 % Qh.
The compound `CCS(=O)(=O)c1cnc(CNc2nc3c(C)nc(-c4c(C)ncnc4C4CC4)nc3n(C(C)C(F)F)c2=O)nc1` (stereo not drawn) [Example 89] returned an IC50 on RORγ of 0.225 µM. Further, in data set [1], the “HLM (% Qh)” value is listed as <24 % Qh.
In turn, `CC[C@H](C)n1c(=O)c(NCc2ccc(S(=O)(=O)CC)cn2)nc2c(C)nc(-c3c(C)ncnc3C3CC3)nc21` [Example 60] had an IC50 against RORγ of 0.08 µM. The “HLM (% Qh)” value in data set [1] is reported as <24 % Qh.
`CCS(=O)(=O)c1ccc(CNc2nc3c(C)nc(-c4c(C)ncnc4C4CC4)nc3n([C@@H](C)CF)c2=O)nc1` [Example 48] gave an IC50 on RORγ of 1.2 µM. Also, the “HLM (% Qh)” value in data set [1] is <24 % Qh.
On the same counts, the results for `CC[C@@H](C)n1c(=O)c(NCc2ncc(S(C)(=O)=O)cn2)nc2c(C)nc(-c3c(C)ncnc3C3CC3)nc21` [Example 57] are 0.5 µM and <24 % Qh.
With `Cc1ncnc(C2CC2)c1-c1nc(C)c2nc(NCc3ccc(S(C)(=N)=O)cn3)c(=O)n([C@@H](C)C(F)(F)F)c2n1` (single isomer, unassigned) [Example 106b], the IC50 on RORγ came out at 0.84 µM. In addition, the “HLM (% Qh)” value in data set [1] is listed as 28 % Qh.
The corresponding values for `CCS(=O)(=O)c1ccc(CNc2nc3c(C)nc(-c4c(C)ncnc4C4CC4)nc3n([C@@H](C)C(F)(F)F)c2=O)cn1` [Example 82] are 0.225 µM and <24 % Qh.
Turning to `CCS(=N)(=O)c1ccc(CNc2nc3c(C)nc(-c4c(C)ncnc4C4CC4)nc3n([C@@H](C)C3CC3)c2=O)cc1` (single isomer, unassigned) [Example 36b], 0.245 µM corresponded to half-maximal inhibition on RORγ (IC50). Besides, the “HLM (% Qh)” value in data set [1] was <24 % Qh.
The corresponding values for `CC[C@@H](C)n1c(=O)c(NCc2ccc(S(=O)(=O)CC)cn2)nc2c(C)nc(-c3c(C)ncnc3C3CC3)nc21` [Example 65] are 0.135 µM and <24 % Qh.
